Assay results: US12564595B2, “Prophylactic and therapeutic pharmaceutical agent for HIV infectious diseases characterized by comprising combination of integrase inhibitor and anti-HIV agent” (Shionogi & Co., Ltd., priority 2019, dated 2026)

tested on: HIV; assay: microbe, parasite or virus in culture; type: cell-based; details: Human immunodeficiency virus 1, MT4, 96 h, read-out: EC50 (50% HIV inhibition concentration), MT-4 cells, HIV, cultured four days, MTT; compounds of formula (I′) of (B)
Method: A serial dilution series of test samples was prepared in 96-well microplates (50 μL/well).
100 μL/well in each case were dispensed onto plates having test samples of 2.5×10^5/mL MT-4 cell suspension, and HIV virus solution was then dispensed thereto in the amount of 50 μL/well. Mixing was performed using a plate mixer and culturing was performed for four days in a CO2 incubator. MTT (3-(4,5-dimethylthiazol-2-yl)-2,5-diphenyltetrazolium bromide) liquid was dispensed into each well in the amount of 30 μL in each case. The reaction was conducted for 1 h in a CO2 incubator. 150 μL of supernatant were removed from each well, taking care not to aspirate any cells. 150 μL of cell solution were added, and thorough mixing was performed with a plate mixer until all the cells had been dissolved. The optical absorbance of the mixed plates was measured at two wavelengths: 560 nm/690 nm, with a microplate reader.

EC50 [nM]	Compound
1.4	COCC[C@H]1Cn2c(C)cc3c(-c4ccc(Cl)cc4)c([C@H](OC(C)(C)C)C(=O)O)c(C)c(c32)N1S(C)(=O)=O [I′-043]
2.5	Cc1ccc(-c2c([C@H](OC(C)(C)C)C(=O)O)c(C)c3c4c2cc(C)n4CCN3c2nc3c(s2)CCN(C)C3)cc1 [I′-292]
4.1	Cc1ccc(-c2c([C@H](OC(C)(C)C)C(=O)O)c(C)c3c4c2cc(C)n4CCN3c2ncc(CN(C)C)cn2)cc1 [I′-304]
9.9	Cc1ccc(-c2c([C@H](OC(C)(C)C)C(=O)O)c(C)c3c4c2cc(C)n4CCN3CCN(C)C)cc1 [I′-027]
1.6	COc1cnc(N2CCn3c(C)cc4c(-c5ccc(C)cc5)c([C@H](OC(C)(C)C)C(=O)O)c(C)c2c43)nc1 [I′-189]
5.9	Cc1ccc(-c2c([C@H](OC(C)(C)C)C(=O)O)c(C)c3c4c2cc(C)n4CCN3c2ncc(OCCN(C)C)cn2)cc1 [I′-220]
0.69	Cc1ccc(-c2c([C@H](OC(C)(C)C)C(=O)O)c(C)c3c4c2cc(C)n4CCN3C)cc1 [I′-001]

tested on: HIV mutant strain 1 (E138K/G140S/Q148H/N155H); assay: Test Example 2: resistance evaluation test (HeLa-CD4 reporter), mutant strain 1; type: cell-based; details: FC=EC50 of mutant strain/EC50 of wild strain; HeLa-CD4 cells
Method: (§1) A serial dilution series of test samples in 96-well microplates was prepared (50 […]).
(§2) 2.5×10^4/mL of HeLa-CD4 cell suspension was dispensed into each of the microplates containing test sample, in the amount of 100 μL/well, and HIV virus liquid (wild strain and mutant strain) was then dispensed in an amount of 50 μL/well. Mixing was performed using a plate mixer and culturing was performed for three days in a CO2 incubator. After removing the cultured supernatant of each well by suction, 100 μL of the cell solution buffer in the reporter measurement kit was dispensed thereto, and freezing was conducted in a refrigerator (−80° C.). The plates frozen in the refrigerator were defrosted at room temperature, then mixed using a plate mixer and centrifuged for 5 min at 1,200 rpm. The supernatant of each well was divided to 96-well microplates (BLACK) in the amount of 20 μL in each case. The chemiluminescence reagent in the reporter assay kit was dispensed in the amount of 100 μL in each case, and, after reacting for about 1 h at room temperature, the amount of luminescence was measured using a MicroBeta TRILUX.
(§3) The degree of resistance (fold change (FC)) of each mutant strain was also calculated using the following formula. FC=EC50 of mutant strain/EC50 of wild strain (Results)
(§4) The results of the example compounds relating to formula (I) of (A) are shown below. The […] in respect of mutant strain 1 (E138K/G140S/Q148H/N155H) and the FC in respect of mutant strain 2 (E92Q/E138T/G140S/Q148H) are shown in the Table.

Compound	FC in respect of mutant strain 1 (E138K/G140S/Q148H/N155H)
CCN1C(=O)c2c(O)c(=O)c(C(=O)NCc3c(F)cc(F)cc3F)cn2N2C[C@@H](C)CC[C@@H]12 [II-096]	6.4
CN1C(=O)c2c(O)c(=O)c(C(=O)NCc3cccc(Cl)c3F)cn2N2CCCC[C@@H]12 [II-092]	6.8
C[C@H]1C[C@H]2N(C)C(=O)c3c(O)c(=O)c(C(=O)NCc4cccc(Cl)c4F)cn3N2C1 [II-036]	15

tested on: HIV mutant strain 2 (E92Q/E138T/G140S/Q148H); assay: Test Example 2: resistance evaluation test (HeLa-CD4 reporter), mutant strain 2; type: cell-based; details: FC=EC50 of mutant strain/EC50 of wild strain; HeLa-CD4 cells
Method: as §1, §2, §3, §4

Compound	FC in respect of mutant strain 2 (E92Q/E138T/G140S/Q148H)
CCN1C(=O)c2c(O)c(=O)c(C(=O)NCc3c(F)cc(F)cc3F)cn2N2C[C@@H](C)CC[C@@H]12 [II-096]	8.9
CN1C(=O)c2c(O)c(=O)c(C(=O)NCc3cccc(Cl)c3F)cn2N2CCCC[C@@H]12 [II-092]	7.7
C[C@H]1C[C@H]2N(C)C(=O)c3c(O)c(=O)c(C(=O)NCc4cccc(Cl)c4F)cn3N2C1 [II-036]	7.9

tested on: HIV; assay: Test Example 3: test for confirmation of combined use effect; type: cell-based; set-up: key to D value (dosewise additivity value): <-0.1 synergy, -0.1 to 0.1 additive, >0.1 antagonism; details: combination with compound (B) Compound C (CAI)
Text: The two compounds in respect of which the effect of combined use was desired to be examined were mixed in various ratios, and the anti-HIV activity (50% HIV inhibiting concentration) for each combination was found by the method of test example 1. […] A brief description of the method of calculating the D value is given below.
The D value that is found by evaluating the anti-HIV activity of respective combinations of M concentrations of compound X1 and N concentrations of compound X2 is calculated by the following mathematical expression 1.
The effect of combined use was evaluated in terms of the D value in accordance with the following criteria • −0.5 to −0.2: strong synergetic effect • −0.2 to −0.1: weak synergetic effect • […]: additive synergetic effect • 0.1 to 0.2: weak antagonism • 0.2 to 0.5: strong antagonism

Compound	D value (dosewise additivity value)	effect of combined use
CCN1C(=O)c2c(O)c(=O)c(C(=O)NCc3c(F)cc(F)cc3F)cn2N2C[C@@H](C)CC[C@@H]12 [II-096]	0.065	Additive (−0.1 to −0.1: additive synergetic effect)
CN1C(=O)c2c(O)c(=O)c(C(=O)NCc3cccc(Cl)c3F)cn2N2CCCC[C@@H]12 [II-092]	0.056	Additive (−0.1 to −0.1: additive synergetic effect)
C[C@H]1C[C@H]2N(C)C(=O)c3c(O)c(=O)c(C(=O)NCc4cccc(Cl)c4F)cn3N2C1 [II-036]	0.032	Additive (−0.1 to −0.1: additive synergetic effect)

same assay, conditions: combination with compound (B) Darunavin (PI)

Compound	D value (dosewise additivity value)
CCN1C(=O)c2c(O)c(=O)c(C(=O)NCc3c(F)cc(F)cc3F)cn2N2C[C@@H](C)CC[C@@H]12 [II-096]	−0.130
CN1C(=O)c2c(O)c(=O)c(C(=O)NCc3cccc(Cl)c3F)cn2N2CCCC[C@@H]12 [II-092]	−0.117
C[C@H]1C[C@H]2N(C)C(=O)c3c(O)c(=O)c(C(=O)NCc4cccc(Cl)c4F)cn3N2C1 [II-036]	−0.115

same assay, conditions: combination with compound (B) Darunavir (PI)

Compound	effect of combined use
CCN1C(=O)c2c(O)c(=O)c(C(=O)NCc3c(F)cc(F)cc3F)cn2N2C[C@@H](C)CC[C@@H]12 [II-096]	Weak synergy (−0.2 to −0.1: weak synergetic effect)
CN1C(=O)c2c(O)c(=O)c(C(=O)NCc3cccc(Cl)c3F)cn2N2CCCC[C@@H]12 [II-092]	Weak synergy (−0.2 to −0.1: weak synergetic effect)
C[C@H]1C[C@H]2N(C)C(=O)c3c(O)c(=O)c(C(=O)NCc4cccc(Cl)c4F)cn3N2C1 [II-036]	Weak synergy (−0.2 to −0.1: weak synergetic effect)

same assay, conditions: combination with compound (B) GS-6207 (CAI)

Compound	D value (dosewise additivity value)	effect of combined use
CCN1C(=O)c2c(O)c(=O)c(C(=O)NCc3c(F)cc(F)cc3F)cn2N2C[C@@H](C)CC[C@@H]12 [II-096]	−0.125	Weak synergy (−0.2 to −0.1: weak synergetic effect)
CN1C(=O)c2c(O)c(=O)c(C(=O)NCc3cccc(Cl)c3F)cn2N2CCCC[C@@H]12 [II-092]	−0.093	Additive (−0.1 to −0.1: additive synergetic effect)
C[C@H]1C[C@H]2N(C)C(=O)c3c(O)c(=O)c(C(=O)NCc4cccc(Cl)c4F)cn3N2C1 [II-036]	−0.117	Weak synergy (−0.2 to −0.1: weak synergetic effect)

same assay, conditions: combination with compound (B) GSK2838232 (maturation inhibitor)

Compound	D value (dosewise additivity value)	effect of combined use
CCN1C(=O)c2c(O)c(=O)c(C(=O)NCc3c(F)cc(F)cc3F)cn2N2C[C@@H](C)CC[C@@H]12 [II-096]	0.001	Additive (−0.1 to −0.1: additive synergetic effect)
CN1C(=O)c2c(O)c(=O)c(C(=O)NCc3cccc(Cl)c3F)cn2N2CCCC[C@@H]12 [II-092]	0.000	Additive (−0.1 to −0.1: additive synergetic effect)
C[C@H]1C[C@H]2N(C)C(=O)c3c(O)c(=O)c(C(=O)NCc4cccc(Cl)c4F)cn3N2C1 [II-036]	0.021	Additive (−0.1 to −0.1: additive synergetic effect)

same assay, conditions: combination with compound (B) I′-189 (INLAI)

Compound	D value (dosewise additivity value)	effect of combined use
CCN1C(=O)c2c(O)c(=O)c(C(=O)NCc3c(F)cc(F)cc3F)cn2N2C[C@@H](C)CC[C@@H]12 [II-096]	0.070	Additive (−0.1 to −0.1: additive synergetic effect)

same assay, conditions: combination with compound (B) Lilpiperine (polymerase inhibitor)

Compound	effect of combined use
CCN1C(=O)c2c(O)c(=O)c(C(=O)NCc3c(F)cc(F)cc3F)cn2N2C[C@@H](C)CC[C@@H]12 [II-096]	Additive (−0.1 to −0.1: additive synergetic effect)
CN1C(=O)c2c(O)c(=O)c(C(=O)NCc3cccc(Cl)c3F)cn2N2CCCC[C@@H]12 [II-092]	Additive (−0.1 to −0.1: additive synergetic effect)
C[C@H]1C[C@H]2N(C)C(=O)c3c(O)c(=O)c(C(=O)NCc4cccc(Cl)c4F)cn3N2C1 [II-036]	Additive (−0.1 to −0.1: additive synergetic effect)

same assay, conditions: combination with compound (B) Ramipzin (3TC) (polymerase inhibitor)

Compound	D value (dosewise additivity value)	effect of combined use
CCN1C(=O)c2c(O)c(=O)c(C(=O)NCc3c(F)cc(F)cc3F)cn2N2C[C@@H](C)CC[C@@H]12 [II-096]	−0.177	Weak synergy (−0.2 to −0.1: weak synergetic effect)
CN1C(=O)c2c(O)c(=O)c(C(=O)NCc3cccc(Cl)c3F)cn2N2CCCC[C@@H]12 [II-092]	−0.118	Weak synergy (−0.2 to −0.1: weak synergetic effect)
C[C@H]1C[C@H]2N(C)C(=O)c3c(O)c(=O)c(C(=O)NCc4cccc(Cl)c4F)cn3N2C1 [II-036]	−0.184	Weak synergy (−0.2 to −0.1: weak synergetic effect)

same assay, conditions: combination with compound (B) Rilpivirine (polymerase inhibitor)

Compound	D value (dosewise additivity value)
CCN1C(=O)c2c(O)c(=O)c(C(=O)NCc3c(F)cc(F)cc3F)cn2N2C[C@@H](C)CC[C@@H]12 [II-096]	−0.035
CN1C(=O)c2c(O)c(=O)c(C(=O)NCc3cccc(Cl)c3F)cn2N2CCCC[C@@H]12 [II-092]	−0.022
C[C@H]1C[C@H]2N(C)C(=O)c3c(O)c(=O)c(C(=O)NCc4cccc(Cl)c4F)cn3N2C1 [II-036]	−0.044

same assay, conditions: combination with compound (B) VM-1500 (polymerase inhibitor)

Compound	D value (dosewise additivity value)	effect of combined use
CCN1C(=O)c2c(O)c(=O)c(C(=O)NCc3c(F)cc(F)cc3F)cn2N2C[C@@H](C)CC[C@@H]12 [II-096]	−0.115	Weak synergy (−0.2 to −0.1: weak synergetic effect)

tested on: not listed separately; assay: Test Example 8: metabolic stability test; type: in vitro ADME, human; details: pooled human liver microsomes, 30 min at 37° C., NADPH, compound concentration 0.5 μmol/L
Method: The extent of metabolization of the compound according to the present invention in the liver was evaluated by reacting commercially available pooled human liver microsomes with the compound according to the present invention for a fixed time and calculating the remaining percentage by comparing the reaction sample with an unreacted sample.
The reaction (oxidative reaction) was conducted for 0 min or 30 min at 37° C. in the presence of 1 mmol/L of NADPH, in a 0.2 mL buffer solution containing 0.5 mg of human liver microsome protein/mL (50 mmol/L Tris-HCl pH 7.4, 150 mmol/L potassium chloride, 10 mmol/L magnesium chloride). After the reaction, 50 μL of reaction liquid were added to 100 μL of methanol/acetonitrile=1/1 (v/v) solution, mixed, and centrifuged for 15 minutes at 3000 rpm. The compound according to the present invention in the centrifuged supernatant was quantified using LC/MS/MS or solid phase extraction (SPE)/MS; the residual amount of the compound according to the present invention after the reaction was calculated, taking the amount of the compound at the 0 min reaction point as 100%.

Compound	Remaining percentage [%]
CCN1C(=O)c2c(O)c(=O)c(C(=O)NCc3c(F)cc(F)cc3F)cn2N2C[C@@H](C)CC[C@@H]12 [II-096]	90.7
CN1C(=O)c2c(O)c(=O)c(C(=O)NCc3cccc(Cl)c3F)cn2N2CCCC[C@@H]12 [II-092]	101
C[C@H]1C[C@H]2N(C)C(=O)c3c(O)c(=O)c(C(=O)NCc4cccc(Cl)c4F)cn3N2C1 [II-036]	97.4
